Test results as given in article PMC13441969, “Zero-shot design of drug-binding proteins via neural iterative selection−expansion” (Nature, 2026).
“Also recorded” adds a separate entry of the source. Where a name gives a salt, the structure may show the parent alone.

What was measured:
[1] = test system: EPIC; assay: Fluorescence anisotropy of fluorescent ligands binding to EPIC; conditions: for binding of ligand to EPIC (words) / Kd: [ligand] = 50 nM; for binding of ligand to EPIC (words): dexamethasone and apixaban as FITC conjugates; for Kd: 1:1 binding model
Method: including the ProteinMPNN-designed sequences along with the Ala/Gly versions, are available […]
Fluorescence Polarization Experiments to Determine Binding Affinities
We performed fluorescence anisotropy experiments in a 384 -well plate -reader format to determine the binding affinities of protein s with various ligands (Supp. Fig. 15 and Supp. Table 6). We serially diluted an initial solution containing a high concentration of protein while keeping a constant concentration of ligand (50 nM) in each well. The buffer for these assays was composed of 1x PBS, pH 7.4, and 0.1% w/v PEG-8000. Camptothecin-class molecules (exatecan, camptothecin, belotecan, FL118, irinotecan) were excited at a wavelength of 360 nm using a BMG LabTech PHERAstar FSX plate reader or a BMG LabTech CLARIOstar Plus plate reader. We detected the resulting parallel and perpendicularly polarized emission at 440 nm. […]
excited using 482 nm filter (16 nm bandwidth) using a BMG LabTech CLARIOstar Plus plate reader, and parallel and perpendicularly polarized emissions were detected through a 530 nm filter (40 nm bandwidth). Data was fit using the quadratic form of a single-site binding model.
Gain settings for each molecule were calculated by auto-adjusting the focus on a well containing free ligand and buffer, setting the millipolarization (mP) of free ligand to mP = 35.
Fits to Fluorescence Anisotropy Data
Data from fluorescence anisotropy (r) experiments, which varied total protein concentration, [P]T for a fixed total ligand concentration, [L]T, was fit to a single-site binding […]
model (Equations 1 and 2, N = 1). […] For
EPIC and its mutants, confidence intervals of the fit parameters were determined from bootstrapping the residuals of the optimum fit (random residual selection with replacement) to create 1000 synthetic datasets, which were each separately fit to Equations 1 and 2. Parameter means and 95% confidence intervals were determined from the distribution of the parameters computed from the bootstrapped fits.
We performed separate protein titrations across three fixed exatecan concentration s (25 , 12.5 , and 5 nM) and measured fluorescence anisotropy of exatecan as a function of protein concentration . For each EPIC mutant, the dissociation constant (Kd) and anisotropy baseline (A min) were shared parameters across the three exatecan concentrations. Anisotropy maxima (Amax) and ligand concentration ([L]T) were fit locally. We fit the ligand concentrations locally (to within 15% of the target concentration) to account for experimental discrepancies. Code for performing the fitting is provided in Zenodo16. […]

[2] = Exatecan lactone hydrolysis by time-resolved absorbance; assay type: physicochemical; conditions: room temperature, pH 7.4; 3 half-lives
[3] = set-up: method as in PMID 11595695; conditions: cited from earlier work
[4] = set-up: method as in PMID 35318309, PMID 31620223; conditions: read-out: cellular half-maximum inhibitory concentration (IC50); cited from earlier work

Row | Structure (SMILES) | binding of ligand to EPIC (words) [1] | ΔΔG (change in binding free energy) relative to the exatecan–EPIC complex [1] | Kd [1] | further results
1 | C[C@@H]1C[C@H]2[C@@H]3CCC4=CC(=O)C=C[C@]4(C)[C@@]3(F)[C@@H](O)C[C@]2(C)[C@@]1(O)C(=O)CO [dexamethasone] | no binding; also recorded: does not bind |  |  | binding of ligand to EPIC (words) ([1]; listed as Dexamethasone): no appreciable binding
2 | CC[C@@]1(O)C(=O)OCc2c1cc1n(c2=O)Cc2cc3cc4c(cc3nc2-1)OCO4 [FL118] |  | 2.3 kcal/mol | 6 µM | 
3 | CCc1c2c(nc3ccc(OC(=O)N4CCC(N5CCCCC5)CC4)cc13)-c1cc3c(c(=O)n1C2)COC(=O)[C@]3(O)CC [irinotecan] | not to bind; also recorded: no appreciable binding |  |  | binding of ligand to EPIC (words) ([1]; listed as Irinotecan): negligible binding
4 | CC[C@@]1(O)C(=O)OCc2c1cc1n(c2=O)Cc2c-1nc1cc(F)c(C)c3c1c2[C@@H](N)CC3 [exatecan, Exatecan mesylate] |  |  | 0.12 µM | time for nearly complete conversion from C to O form [2]: ≤ 6 h; fold tighter binding of EPIC to exatecan than to any other ligand tested [1]: at least 50 fold; half-life of hydrolysis of free drug in plasma ([3]; plasma): around 2 h; steady-state level of lactone form in human plasma ([3]; within 10 h): 15%; IC50 [4]: ~0.001 µM
5 | COc1ccc(-n2nc(C(N)=O)c3c2C(=O)N(c2ccc(N4CCCCC4=O)cc2)CC3)cc1 [apixaban, Apixaban] | no appreciable binding; also recorded: does not bind |  |  | 
6 | CC[C@@]1(O)C(=O)OCc2c1cc1n(c2=O)Cc2c-1nc1ccccc1c2CCNC(C)C [belotecan, Belotecan hydrochloride] |  | 3.0 kcal/mol | 19 µM | 
7 | CC[C@@]1(O)C(=O)OCc2c1cc1n(c2=O)Cc2cc3ccccc3nc2-1 [camptothecin, Camptothecin] |  | 3.9 kcal/mol | 90 µM | 
8 | COc1ccc(-n2nc(C(=O)NCCOCCOCCNC(=S)Nc3ccc(-c4c5ccc(=O)cc-5oc5cc(O)ccc45)c(C(=O)O)c3)c3c2C(=O)N(c2ccc(N4CCCCC4=O)cc2)CC3)cc1 [apixaban-peg-FITC] | did not show any experimentally detectable binding |  |  | 
